Measured values from patent US12723037B2, “Triazole derivative, method for preparing same, and use thereof” (SHENZHEN JIKANG PHARMACEUTICAL TECHNOLOGY CO., LTD., priority 2021, dated 2026).
pIC50: −log10 of the molar value. Where two headings read alike, the source gives them in different places.

Assays:
RPMI8226 cells = assay: Cytotoxicity experiment (Cell-Titer, 72 h) in RPMI8226 cells; assay type: cell-based; conditions: for pIC50: Homo sapiens, RPMI-8226, 72 h, Cell-Titer
Experimental: 4. Cytotoxicity Experiment
• (1) RPMI8226 cells in the logarithmic growth phase were added to a 384-well plate at 1000 cells/well in a volume of 18 μL/well and incubated at 37° C., 5% CO2 for 24 h. • (2) The test compound at a stock concentration of 10 mM was diluted 10-fold with DMSO and then 100-fold with a serum-free 1640 medium to give a dilution at a working concentration of 10 μM containing 1% DMSO. 10 concentrations were then obtained by 2-fold serial dilution using a serum-free 1640 medium containing 1% DMSO, with the tenth concentration point being a solvent control group (no drug). The diluted compound was added into the plated cell plate at 2 μL/well to give final compound concentrations from 1000 nM (2-fold gradient dilution, 10 concentration gradients), and 4 replicates were set for each concentration. 1% DMSO was used as a solvent control and KPT-8602 as a positive control. • (3) The cells were incubated at 37° C. for 72 h, and 10 μL of Cell-Titer assay reagent was added to each well, followed by incubation in a cell incubator for 10 min. • (4) The mixture was well mixed by shaking and then assayed by the Cell-Titer program running on a microplate reader. The inhibition % and IC50 values (μM) were calculated using GraphPad Prism 5.

[1] = Pharmacokinetic results of the drugs in SD rats; assay type: in vivo; conditions: for clearance: read-out: Cl s, spp
Source text: III. Pharmacokinetic Results of the Drugs in SD Rats

[2] = In vivo toxicity assay in BALB/C mice (21 days, intragastric, once daily)
Experimental: IV. In Vivo Toxicity Assay of Candidate Compounds in BALB/C
25 BALB/C mice were randomly divided into the following 5 groups: solvent control group (Control), positive control KPT-8602 (30 mg/kg, once daily) group, KPT-8602 (60 mg/kg, once daily) group, compound I (30 mg/kg, once daily) group, and compound I (60 mg/kg, once daily) group, with 5 mice in each group. Each group was intragastrically given a test compound at a corresponding concentration at a dose of 3 mL/kg. KPT-8602 and compound I were administered daily for 21 consecutive days.

[3] = rat, in vivo, po (10 mg/kg), read-out: AUC0-inf
[4] = 30 mg/kg once daily, intragastric, 21 days

SMILES	cellular activity compared with KPT-8602 (RPMI8226 cells)	pIC50 (RPMI8226 cells)	AUC0-inf ([1]; iv (2 mg/kg), in ng·h/mL)	AUC0-t ([1]; iv (2 mg/kg), in ng·h/mL)	Cl s, spp ([1]; po (10 mg/kg)) [mL/min/kg]	MRT ([1]; rat, in vivo, iv (2 mg/kg)) [h]	half-life ([1]; rat, in vivo, iv (2 mg/kg)) [h]	clearance ([1]; rat, in vivo, iv (2 mg/kg)) [mL/min/kg]	MRT ([1]; rat, in vivo, po (10 mg/kg)) [h]	Tmax ([1]; rat, in vivo, po (10 mg/kg)) [h]	bioavailability ([1]; rat, in vivo, po (10 mg/kg)) [%]	half-life ([1]; rat, in vivo, po (10 mg/kg)) [h]	AUC0-inf [1, 3] [ng·h/mL]	body weight change [2, 4]	other results
CONC(=O)/C(=C/n1cnc(-c2cc(C(F)(F)F)cc(C(F)(F)F)c2)n1)c1cncnc1 [Compound I, (E)-3-(3-(3,5-Bis(trifluorometh-yl)phenyl)-1H-1,2,4-triazol-1-yl)-N-methoxy-2-(pyri-midin-5-yl)acrylamide]	substantially equivalent to KPT-8602	6.43	1493	1301	43.8	2.49	4.23	24.2	7.65	0.25	55.9	5.59	3890	body weights comparable to the blank	intravenous and oral AUCs compared with KPT-8602 ([1]; iv and po): much higher than those of KPT-8602; oral and intravenous half-lives compared with KPT-8602 ([1]; iv and po): longer than those of KPT-8602; oral half-life compared with KPT-8602 ([1]; po): about 2 times; Cmax ([1]; po (10 mg/kg)): 899 ng/mL; AUC0-t ([1]; rat, in vivo, po (10 mg/kg), read-out: AUC0-t): 3210 ng·h/mL; body weight change ([2]; 60 mg/kg once daily, intragastric, 21 days): body weights comparable to the blank; safety (overall conclusion) ([2]; 30 and 60 mg/kg once daily, 21 days): good safety
O=C(NO)/C(=C/n1cnc(-c2cc(C(F)(F)F)cc(C(F)(F)F)c2)n1)c1cncnc1 [II, (E)-3-(3-(3,5-Bis(trifluorometh-yl)phenyl)-1H-1,2,4-triazol-1-yl)-N-hydroxy-2-(pyri-midin-5-yl)acrylamide]	–	5.16	–	–	–	–	–	–	–	–	–	–	–	–	–
CO/C(=N\C(C)(C)C)NC(=O)/C(=C/n1cnc(-c2cc(C(F)(F)F)cc(C(F)(F)F)c2)n1)c1cncnc1 [III, Methyl(Z)-N-((E)-3-(3-(3,5-bis(trifluoromethyl)phenyl)-1H-1,2,4-triazol-1-yl)-2-(py-rimidin-5-yl)acryloyl)-N′-(tert-butyl)carbamate]	–	5.15	–	–	–	–	–	–	–	–	–	–	–	–	–
CCONC(=O)/C(=C/n1cnc(-c2cc(C(F)(F)F)cc(C(F)(F)F)c2)n1)c1cncnc1 [IV, (E)-3-(3-(3,5-Bis(trifluorometh-yl)phenyl)-1H-1,2,4-triazol-1-yl)-N-ethoxy-2-(pyrimi-din-5-yl)acrylamide]	substantially equivalent to KPT-8602	6.27	–	–	–	–	–	–	–	–	–	–	–	–	–
NC(=O)/C(=C/n1cnc(-c2cc(C(F)(F)F)cc(C(F)(F)F)c2)n1)c1cncnc1 [KPT-8602, reference compound]	–	6.47	998	963	67.4	2.48	3.04	34.4	3.85	1	52	2.69	2600	significant decrease in body weight	AUC0-t ([1]; po (10 mg/kg), in ng·h/mL): 2541; Cmax ([1]; rat, in vivo, po (10 mg/kg), read-out: Cmax): 720 ng/mL; mortality by day 10 ([2]; 60 mg/kg once daily, intragastric): all died; mice died on day 7 ([2]; 60 mg/kg once daily, intragastric, 5 mice per group): two
